In PubChem BioAssay (NCI):
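Test compounds were applied to cells in 96-well plates for 48 hours at 5 doses. At the GI50, growth is halved. TGI: total growth inhibition.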

Columns and labels:
Assay in all cases: NCI tumour cell line growth inhibition, 48 h
786-0 renal = test system: 786-0 renal
A498 renal = test system: A498 renal
A549 NSCLC = test system: A549 NSCLC
ACHN renal = test system: ACHN renal
BT-549 breast = test system: BT-549 breast
CAKI-1 renal = test system: CAKI-1 renal
CCRF-CEM leukemia = test system: CCRF-CEM leukemia
COLO 205 colon = test system: COLO 205 colon
DU-145 prostate = test system: DU-145 prostate
EKVX NSCLC = test system: EKVX NSCLC
HCC-2998 colon = test system: HCC-2998 colon
HCT-116 colon = test system: HCT-116 colon
HCT-15 colon = test system: HCT-15 colon
HL-60(TB) leukemia = test system: HL-60(TB) leukemia
HOP-62 NSCLC = test system: HOP-62 NSCLC
HOP-92 NSCLC = test system: HOP-92 NSCLC
HS 578T breast = test system: HS 578T breast
HT29 colon = test system: HT29 colon
IGROV1 ovarian = test system: IGROV1 ovarian
K-562 leukemia = test system: K-562 leukemia
KM12 colon = test system: KM12 colon
LOX IMVI melanoma = test system: LOX IMVI melanoma
M14 melanoma = test system: M14 melanoma
MALME-3M melanoma = test system: MALME-3M melanoma
MCF7 breast = test system: MCF7 breast
MDA-MB-231 breast = test system: MDA-MB-231 breast
MDA-MB-435 = test system: MDA-MB-435
MDA-MB-468 breast = test system: MDA-MB-468 breast
MOLT-4 leukemia = test system: MOLT-4 leukemia
NCI-H226 lung = test system: NCI-H226 lung
NCI-H23 lung = test system: NCI-H23 lung
NCI-H460 lung = test system: NCI-H460 lung
NCI-H522 lung = test system: NCI-H522 lung
NCI/ADR-RES ovarian = test system: NCI/ADR-RES ovarian
OVCAR-3 ovarian = test system: OVCAR-3 ovarian
OVCAR-4 ovarian = test system: OVCAR-4 ovarian
OVCAR-5 ovarian = test system: OVCAR-5 ovarian
OVCAR-8 ovarian = test system: OVCAR-8 ovarian
PC-3 prostate = test system: PC-3 prostate
RPMI-8226 leukemia = test system: RPMI-8226 leukemia
RXF 393 renal = test system: RXF 393 renal
SF-268 CNS = test system: SF-268 CNS
SF-295 CNS = test system: SF-295 CNS
SF-539 CNS = test system: SF-539 CNS
SK-MEL-2 melanoma = test system: SK-MEL-2 melanoma
SK-MEL-28 melanoma = test system: SK-MEL-28 melanoma
SK-MEL-5 melanoma = test system: SK-MEL-5 melanoma
SK-OV-3 ovarian = test system: SK-OV-3 ovarian
SN12C renal = test system: SN12C renal
SNB-19 CNS = test system: SNB-19 CNS
SNB-75 CNS = test system: SNB-75 CNS
SR leukemia = test system: SR leukemia
SW-620 colon = test system: SW-620 colon
T-47D breast = test system: T-47D breast
TK-10 renal = test system: TK-10 renal
U251 CNS = test system: U251 CNS
UACC-257 melanoma = test system: UACC-257 melanoma
UACC-62 melanoma = test system: UACC-62 melanoma
UO-31 renal = test system: UO-31 renal

## CCOP(=O)(OCC)O[C@H]1CC[C@]2(C)[C@H]3CC[C@@H]4[C@@H]([C@](C)(O)CCC=C(C)C)CC[C@@]4(C)[C@]3(C)CC[C@H]2C1(C)C
786-0 renal
  GI50: 11.9 µM
  TGI: 28.3 µM
A498 renal
  GI50: 12.4 µM
  TGI: 25.1 µM
A549 NSCLC
  GI50: 12.6 µM
  TGI: 30.3 µM
ACHN renal
  GI50: 12.5 µM
  TGI: 25 µM
BT-549 breast
  GI50: 14.9 µM
  TGI: 29.1 µM
CAKI-1 renal
  GI50: 10.3 µM
  TGI: 22.8 µM
CCRF-CEM leukemia
  GI50: 11.5 µM
  TGI: 29.3 µM
COLO 205 colon
  GI50: 12.4 µM
  TGI: 29.5 µM
DU-145 prostate
  GI50: 14.8 µM
  TGI: 30.4 µM
EKVX NSCLC
  GI50: 10.1 µM
  TGI: 21.6 µM
HCC-2998 colon
  GI50: 13.4 µM
  TGI: 26 µM
HCT-116 colon
  GI50: 5.91 µM
  TGI: 21.7 µM
HCT-15 colon
  GI50: 10.7 µM
  TGI: 22.4 µM
HL-60(TB) leukemia
  GI50: 8.49 µM
  TGI: 33.2 µM
HOP-62 NSCLC
  GI50: 14.1 µM
  TGI: 29.5 µM
HOP-92 NSCLC
  GI50: 10.3 µM
  TGI: 23.4 µM
HS 578T breast
  GI50: 11.5 µM
  TGI: 31.8 µM
HT29 colon
  GI50: 7.35 µM
  TGI: 23.2 µM
IGROV1 ovarian
  GI50: 13.8 µM
  TGI: 27.5 µM
K-562 leukemia
  GI50: 6.99 µM
  TGI: 98.8 µM
KM12 colon
  GI50: 15.4 µM
  TGI: 33.2 µM
LOX IMVI melanoma
  GI50: 12.7 µM
  TGI: 25.2 µM
M14 melanoma
  GI50: 14.9 µM
  TGI: 35 µM
MALME-3M melanoma
  GI50: 11.7 µM
  TGI: 24 µM
MCF7 breast
  GI50: 7.26 µM
  TGI: 20.5 µM
MDA-MB-231 breast
  GI50: 11.5 µM
  TGI: 23.7 µM
MDA-MB-435
  GI50: 12.8 µM
  TGI: 27.1 µM
MDA-MB-468 breast
  GI50: 5.1 µM
  TGI: 18.2 µM
MOLT-4 leukemia
  GI50: 8.07 µM
  TGI: 29.1 µM
NCI-H226 lung
  GI50: 11.8 µM
  TGI: 25.3 µM
NCI-H23 lung
  GI50: 10.1 µM
  TGI: 21.7 µM
NCI-H460 lung
  GI50: 12.9 µM
  TGI: 27.6 µM
NCI-H522 lung
  GI50: 11.5 µM
  TGI: 25.9 µM
NCI/ADR-RES ovarian
  GI50: 14.7 µM
  TGI: 28.5 µM
OVCAR-3 ovarian
  GI50: 13.5 µM
  TGI: 27.2 µM
OVCAR-4 ovarian
  GI50: 13.4 µM
  TGI: 32 µM
OVCAR-5 ovarian
  GI50: 12.7 µM
  TGI: 25.2 µM
OVCAR-8 ovarian
  GI50: 13.2 µM
  TGI: 30.8 µM
PC-3 prostate
  GI50: 3.45 µM
  TGI: 17 µM
RPMI-8226 leukemia
  GI50: 3.02 µM
  TGI: 17.5 µM
RXF 393 renal
  GI50: 6.45 µM
  TGI: 19.5 µM
SF-268 CNS
  GI50: 12.7 µM
  TGI: 30.9 µM
SF-295 CNS
  GI50: 12.4 µM
  TGI: 24.8 µM
SF-539 CNS
  GI50: 13.2 µM
  TGI: 25.8 µM
SK-MEL-2 melanoma
  GI50: 13.2 µM
  TGI: 26.9 µM
SK-MEL-28 melanoma
  GI50: 12.9 µM
  TGI: 25.8 µM
SK-MEL-5 melanoma
  GI50: 10.4 µM
  TGI: 22.2 µM
SK-OV-3 ovarian
  GI50: 12.3 µM
  TGI: 27 µM
SN12C renal
  GI50: 11.8 µM
  TGI: 24 µM
SNB-19 CNS
  GI50: 13.4 µM
  TGI: 26.1 µM
SNB-75 CNS
  GI50: 7.02 µM
  TGI: 22.4 µM
SR leukemia
  GI50: 3.12 µM
  TGI: 98.8 µM
SW-620 colon
  GI50: 13.2 µM
  TGI: 27.4 µM
T-47D breast
  GI50: 7.62 µM
  TGI: 25.2 µM
TK-10 renal
  GI50: 13.5 µM
  TGI: 27.7 µM
U251 CNS
  GI50: 11.8 µM
  TGI: 28.4 µM
UACC-257 melanoma
  GI50: 12.4 µM
  TGI: 27.3 µM
UACC-62 melanoma
  GI50: 10.7 µM
  TGI: 22.6 µM
UO-31 renal
  GI50: 10.1 µM
  TGI: 21.6 µM

## O=C(c1ccc(Cl)cc1)C(c1c[nH]c2ccccc12)c1c[nH]c2ccccc12
786-0 renal
  GI50: 2.12 µM
  TGI: 4.22 µM
A498 renal
  GI50: 18 µM
  TGI: 34.1 µM
A549 NSCLC
  GI50: 13.5 µM
  TGI: 31.6 µM
ACHN renal
  GI50: 1.91 µM
  TGI: 4.17 µM
BT-549 breast
  GI50: 4.09 µM
  TGI: 14.4 µM
CAKI-1 renal
  GI50: 2.94 µM
  TGI: 14.3 µM
CCRF-CEM leukemia
  GI50: 3.21 µM
  TGI: > 100 µM
COLO 205 colon
  GI50: 16.3 µM
  TGI: 31.2 µM
DU-145 prostate
  GI50: 4.36 µM
  TGI: 16.4 µM
EKVX NSCLC
  GI50: 6.46 µM
  TGI: 20.8 µM
HCC-2998 colon
  GI50: 2.33 µM
  TGI: 5.8 µM
HCT-116 colon
  GI50: 1.65 µM
  TGI: 3.16 µM
HCT-15 colon
  GI50: 2.21 µM
  TGI: 6.16 µM
HL-60(TB) leukemia
  GI50: 2.6 µM
  TGI: 8.35 µM
HOP-62 NSCLC
  GI50: 13 µM
  TGI: 27.3 µM
HOP-92 NSCLC
  GI50: 3.32 µM
  TGI: 16.8 µM
HS 578T breast
  GI50: 13.4 µM
  TGI: 45.8 µM
HT29 colon
  GI50: 2.79 µM
  TGI: 6.97 µM
IGROV1 ovarian
  GI50: 4.05 µM
  TGI: 16.8 µM
K-562 leukemia
  GI50: 2.99 µM
  TGI: 9.64 µM
KM12 colon
  GI50: 8.98 µM
  TGI: 22 µM
LOX IMVI melanoma
  GI50: 1.68 µM
  TGI: 3.26 µM
M14 melanoma
  GI50: 2.9 µM
  TGI: 12.7 µM
MALME-3M melanoma
  GI50: 3.41 µM
  TGI: 15.9 µM
MCF7 breast
  GI50: 2.38 µM
  TGI: 8.25 µM
MDA-MB-231 breast
  GI50: 4.87 µM
  TGI: 20.2 µM
MDA-MB-435
  GI50: 3.85 µM
  TGI: 14.3 µM
MDA-MB-468 breast
  GI50: 2.69 µM
  TGI: 7.65 µM
MOLT-4 leukemia
  GI50: 2.69 µM
  TGI: 12.2 µM
NCI-H226 lung
  GI50: 8.88 µM
  TGI: 24.7 µM
NCI-H23 lung
  GI50: 4.05 µM
  TGI: 17.4 µM
NCI-H460 lung
  GI50: 3.65 µM
  TGI: 14.9 µM
NCI-H522 lung
  GI50: 1.74 µM
  TGI: 3.52 µM
NCI/ADR-RES ovarian
  GI50: 3.52 µM
  TGI: 15.8 µM
OVCAR-3 ovarian
  GI50: 2.56 µM
  TGI: 7.18 µM
OVCAR-4 ovarian
  GI50: 5.23 µM
  TGI: 18.2 µM
OVCAR-5 ovarian
  GI50: 3.79 µM
  TGI: 15.5 µM
OVCAR-8 ovarian
  GI50: 11.2 µM
  TGI: 24.2 µM
PC-3 prostate
  GI50: 3.08 µM
  TGI: 12.7 µM
RPMI-8226 leukemia
  GI50: 3.01 µM
  TGI: 15.4 µM
RXF 393 renal
  GI50: 2.93 µM
  TGI: 9.21 µM
SF-268 CNS
  GI50: 4.85 µM
  TGI: 19.8 µM
SF-295 CNS
  GI50: 12.1 µM
  TGI: 24.9 µM
SF-539 CNS
  GI50: 5.53 µM
  TGI: 18.8 µM
SK-MEL-2 melanoma
  GI50: 12.2 µM
  TGI: 26.1 µM
SK-MEL-28 melanoma
  GI50: 2.36 µM
  TGI: 6.42 µM
SK-MEL-5 melanoma
  GI50: 11.3 µM
  TGI: 23.7 µM
SK-OV-3 ovarian
  GI50: 14.1 µM
  TGI: 27.7 µM
SN12C renal
  GI50: 3.13 µM
  TGI: 12 µM
SNB-19 CNS
  GI50: 15.4 µM
  TGI: 29.6 µM
SNB-75 CNS
  GI50: 2.43 µM
  TGI: 13.3 µM
SR leukemia
  GI50: 2.73 µM
  TGI: 10.9 µM
SW-620 colon
  GI50: 2.99 µM
  TGI: 9.91 µM
T-47D breast
  GI50: 3.01 µM
  TGI: 16 µM
TK-10 renal
  GI50: 18.9 µM
  TGI: 33.2 µM
U251 CNS
  GI50: 10.8 µM
  TGI: 24.1 µM
UACC-257 melanoma
  GI50: 4.93 µM
  TGI: 18.1 µM
UACC-62 melanoma
  GI50: 4.49 µM
  TGI: 17.6 µM
UO-31 renal
  GI50: 3.41 µM
  TGI: 17 µM
